From paper PMC7203576 (Frontiers in Microbiology, 2020)
Values joined by “and” are separate entries in the source; they are usually repeats but may differ in a detail not shown here. Equal values may be shown once. Read-outs that look alike come from different tables or passages of the source. Marks after values point to notes of the source that are not given here. Residues, ends and D or L forms follow the SMILES beside them. *: point of attachment. Tridecanoyl(3R-OH,11-Me) = CCC(C)CCCCCCC[C@@H](O)CC(=O)*

Assays:
[1] = system: Magnaporthe oryzae Triticum (MoT) isolate BTJP 4 (5)
[2] = system: Magnaporthe oryzae Triticum (MoT) on detached wheat leaves cv. BARI Gom 24 (Prodip); conditions: in vivo
[3] = system: Magnaporthe oryzae Triticum (MoT) conidia; conditions: 50 μg/ml

In the case of `CCCCCC[C@H]1C(=O)O[C@H](C)[C@H](NC(=O)c2cccc(NC=O)c2O)C(=O)O[C@@H](C)[C@@H]1OC(=O)CC(C)C` [Antimycin-A, reference compound], the “Activity against MoT” value [1] is reported as “Active”.

With Gageostatin B [reference compound] the “Activity against MoT” value [1] was “Inactive”.

With `CC[C@@H](O)C[C@@H]1CC[C@@H](O)[C@@H](C)C(=O)O[C@@H](C)C[C@H]2CC[C@H](O2)[C@H](C)C(=O)O1` [Feigrisolide C, reference compound] the “Activity against MoT” value [1] was “Active”.

With `COc1ccc2c(c[n+](C)c3c4cc5c(cc4ccc23)OCO5)c1OC` [Chelerythrine chloride, reference compound] the “Activity against MoT” value [1] was “Active”.

In the case of `Oc1cc(O)cc(O)c1` [Phloroglucinol (PG), Phloroglucinol, reference compound], the “Activity against MoT” value [1] is reported as “Inactive”.

`CCC(O)CC1CCC(C(C)C(=O)OC(C)CC2CCC(C(C)C(=O)O)O2)O1` (stereo not drawn) [Bonactin, reference compound] was tested, and the “Activity against MoT” value [1] was “Active”.

For Oligomycin F [reference compound], the “Activity against MoT” value [1] was “Active”.

For `CC(=O)c1c(O)c(C(C)=O)c(O)c(C(C)=O)c1O` [2,4,6-Triacetylphloroglucinol (TAPG 3), 2,4,6-Triacetylphloroglucinol, reference compound], the “Activity against MoT” value [1] was “Inactive”.

With `C[C@@H]1C/C=C/C=C/C=C/C=C/[C@H](O[C@@H]2O[C@H](C)[C@@H](O)[C@H](N)[C@@H]2O)C[C@@H]2O[C@](O)(C[C@@H](O)C[C@H]3O[C@@H]3/C=C/C(=O)O1)C[C@H](O)[C@H]2C(=O)O` [Natamycin, reference compound] the “Activity against MoT” value [1] was “Inactive”.

With `CC(=O)c1c(O)cc(O)cc1O` [Monoacetylphloroglucinol (MAPG), Monoacetylphloroglucinol, reference compound] the “Activity against MoT” value [1] was “Inactive”.

With Gageostatin A [reference compound] the “Activity against MoT” value [1] was “Inactive”.

Gageotetrin C [reference compound] was tested, and the “Activity against MoT” value [1] was “Inactive”.

With Gageopeptide C the “Average lesion length of wheat blast on detached leaves” value (“Average lesion length of wheat blast” below) [2] was 1.8 ± 0.1 mm, the “Activity against MoT” value [1] was “Active” and the “Minimum inhibitory concentration (MIC) on mycelial growth” value (from here on “Minimum inhibitory concentration (MIC)”) [1] was 2.5 μg/disk. For the same molecule, the “Morphology of treated hyphae (microscopy)” value (“Morphology of treated hyphae” for short) [1] was “extensive branching, irregular growth, and swelling in MoT hyphae”, the “Mycelial growth inhibition at the MIC” value [1] was 42.9 ± 1.6% and the “Percent inhibition of radial growth (PIRG) of mycelia” value (shortened to “Percent inhibition of radial growth”) [1] was 58.1 ± 0.9% and 54.3 ± 1.6% and 49.5 ± 0.9%. For the same molecule, the “Germinated conidia (% ± SE)” value ([3]; 0 h) was 0 ± 0^f %, the “Major morphological change/developmental transitions in the treated conidia” value ([3]; 0 h) was “No germination” and the “Major morphological change/developmental transitions in the treated conidia” value ([3]; 6 h) was “Germinated with a short germ tube”. For the same molecule, the “Major morphological change/developmental transitions in the treated conidia” value ([3]; 12 h) was “Deformed germ tube (swollen)”, the “Major morphological change/developmental transitions in the treated conidia” value ([3]; 24 h) was 30% Normal appressoria and 11% abnormal appressoria (low melanization) formed but no mycelial growth took place and the “Conidia with abnormally swollen (deformed) germ tubes” value (shortened to “Conidia with abnormally swollen”) ([3]; after 12 h) was 10 ± 1.5%. The “Conidia producing abnormal appressoria (low melanization)” value ([3]; after 24 h) was 11 ± 0.7% and 11% and the “Conidia producing normal appressoria” value ([3]; after 24 h) was 30 ± 0.7% and 30%.

With Gageopeptide D the “Average lesion length of wheat blast” value [2] was 1.8 ± 0.1 mm, the “Activity against MoT” value [1] was “Active” and the “Minimum inhibitory concentration (MIC)” value [1] was 2.5 μg/disk. The “Morphology of treated hyphae” value [1] was “disruption of normal polar growth of hyphae by inducing excessive branching and swelling of hyphal tips”, the “Mycelial growth inhibition at the MIC” value [1] was 20 ± 1.7% and the “Percent inhibition of radial growth” value [1] was 45.7 ± 1.6% and 30.5 ± 0.9% and 27.6 ± 0.9%. For the same molecule, the “Germinated conidia (% ± SE)” value ([3]; 0 h) was 0 ± 0^f %, the “Major morphological change/developmental transitions in the treated conidia” value ([3]; 0 h) was “No germination” and the “Major morphological change/developmental transitions in the treated conidia” value ([3]; 6 h) was “Germinated with a short germ tube”. The “Major morphological change/developmental transitions in the treated conidia” value ([3]; 12 h) was “Deformed germ tube (swollen)”, the “Major morphological change/developmental transitions in the treated conidia” value ([3]; 24 h) was “No appressoria formed; no mycelial growth took place” and the “Conidia with abnormally swollen” value ([3]; after 12 h) was 25 ± 1.7%.

For `CN[C@@H]1C[C@H]2O[C@@](C)([C@@H]1OC)n1c3ccccc3c3c4c(c5c6ccccc6n2c5c31)C(=O)NC4` [Staurosporine, reference compound], the “Activity against MoT” value [1] was “Active”.

In the case of `CCC(C)CCCCCCC[C@@H](O)CC(=O)N[C@@H](CC(C)C)C(=O)N[C@@H](CCC(=O)O)C(=O)N[C@@H](CC(C)C)C(=O)N[C@@H](CC(C)C)C(=O)O` (stereo partly drawn) [Gageopeptide A] ({Tridecanoyl(3R-OH,11-Me)}-LELL-OH), the “Average lesion length of wheat blast” value [2] is reported as 1.5 ± 0.2 mm, the “Activity against MoT” value [1] is reported as “Active” and the “Minimum inhibitory concentration (MIC)” value [1] is reported as 10.0 μg/disk and 10 μg/disk. For the same molecule, the “Morphology of treated hyphae” value [1] was “remarkable increase in branch frequency per unit length of hyphae, reduced polar growth, and irregular swelling of the hyphal tips”, the “Mycelial growth inhibition at the MIC” value [1] was 12.5 ± 1.8% and the “Percent inhibition of radial growth” value [1] was 50.5 ± 0.9%. The “Germinated conidia (% ± SE)” value ([3]; 0 h) was 0 ± 0^f %, the “Major morphological change/developmental transitions in the treated conidia” value ([3]; 0 h) was “No germination” and the “Major morphological change/developmental transitions in the treated conidia” value ([3]; 6 h) was “Germinated with a short germ tube”. The “Major morphological change/developmental transitions in the treated conidia” value ([3]; 12 h) was “Normal germ tube”, the “Major morphological change/developmental transitions in the treated conidia” value ([3]; 24 h) was “Normal appressoria formed; no mycelial growth took place” and the “Conidia with normal germ tube” value ([3]; after 12 h) was 31 ± 1.7%. The “Conidia producing normal appressoria” value ([3]; after 24 h) was 27 ± 1.5% and the “Inhibition of mycelial growth from germinated conidia” value ([3]; 24 h) was 100%.

With `CCCCCCCC/C=C\CCCCCCCc1cc(O)cc(O)c1` [5-(8Z-Heptadecenyl) resorcinol, reference compound] the “Activity against MoT” value [1] was “Inactive”.

Gageopeptide B was tested, and the “Average lesion length of wheat blast” value [2] was 1.6 ± 0.2 mm, the “Activity against MoT” value [1] was “Active” and the “Minimum inhibitory concentration (MIC)” value [1] was 10.0 μg/disk and 10 μg/disk. For the same molecule, the “Morphology of treated hyphae” value [1] was “swelling of hyphal cells, hyper-branching, loss of apical growth, and swelling of hyphal tips”, the “Mycelial growth inhibition at the MIC” value [1] was 11.5 ± 1.6% and the “Percent inhibition of radial growth” value [1] was 54.3 ± 3.3%. The “Germinated conidia (% ± SE)” value ([3]; 0 h) was 0 ± 0^f %, the “Major morphological change/developmental transitions in the treated conidia” value ([3]; 0 h) was “No germination” and the “Major morphological change/developmental transitions in the treated conidia” value ([3]; 6 h) was “Germinated with a short germ tube”. For the same molecule, the “Major morphological change/developmental transitions in the treated conidia” value ([3]; 12 h) was “Deformed germ tube (swollen)”, the “Major morphological change/developmental transitions in the treated conidia” value ([3]; 24 h) was “No appressoria formed; no mycelial growth took place” and the “Conidia with abnormally swollen” value ([3]; after 12 h) was 51 ± 2.1%.

With Macrolactin B [reference compound] the “Activity against MoT” value [1] was “Active”.

In the case of `C[C@H]1CCC/C=C\C=C\[C@H](O)C[C@@H](O)C/C=C\C=C\[C@@H](OC(=O)CCC(=O)O[C@H]2O[C@@H](CO)[C@H](O)[C@@H](O)[C@@H]2O)C/C=C/C=C\C(=O)O1` [Macrolactin W, reference compound], the “Activity against MoT” value [1] is reported as “Inactive”.

With `CC[C@H]1/C=C/C=C/C[C@@H](C)[C@H](O)[C@@](C)(O)C(=O)[C@@H](C)[C@H](O)[C@@H](C)C(=O)[C@@H](C)[C@H](O)[C@@H](C)/C=C/C(=O)O[C@@H]2[C@H](C)[C@H](CC1)O[C@@]1(O[C@@H](C[C@@H](C)O)[C@@H](C)CC1=O)[C@H]2C` [Oligomycin B, reference compound] the “Activity against MoT” value [1] was “Active”.

In the case of Gageotetrin A [reference compound], the “Activity against MoT” value [1] is reported as “Inactive”.

In the case of Gageostatin C [reference compound], the “Activity against MoT” value [1] is reported as “Inactive”.

In the case of Gageotetrin B, the “Average lesion length of wheat blast” value [2] is reported as 1.5 ± 0.1 mm, the “Activity against MoT” value [1] is reported as “Active” and the “Minimum inhibitory concentration (MIC)” value [1] is reported as 1.5 μg/disk. For the same molecule, the “Morphology of treated hyphae” value [1] was “coarse, loss of radial growth, and irregular swelling on the tips”, the “Mycelial growth inhibition at the MIC” value [1] was 22.9 ± 1.6% and the “Percent inhibition of radial growth” value [1] was 60.9 ± 2.5% and 59 ± 0.9% and 51.4 ± 1.7%. The “Germinated conidia (% ± SE)” value ([3]; 0 h) was 0 ± 0^f %, the “Major morphological change/developmental transitions in the treated conidia” value ([3]; 0 h) was “No germination” and the “Major morphological change/developmental transitions in the treated conidia” value ([3]; 6 h) was “Germinated with a short germ tube”. The “Major morphological change/developmental transitions in the treated conidia” value ([3]; 12 h) was “Deformed germ tube (swollen)”, the “Major morphological change/developmental transitions in the treated conidia” value ([3]; 24 h) was “Abnormal appressoria formed; no mycelial growth took place” and the “Conidia with abnormally swollen” value ([3]; after 12 h) was 41 ± 3.8%.

In the case of `CCCc1c(O)cc(O)c(CCC)c1O` [2,4-Dipropylphloroglucinol (DPPG), 2,4-Dipropylphloroglucinol, reference compound], the “Activity against MoT” value [1] is reported as “Inactive”.

For Neomycin [reference compound], the “Activity against MoT” value [1] was “Active”.

`COC1=CC(=O)C(O)=C(CCCCCCC/C=C\CCCCCCCC2=C(O)C(=O)C=C(OC)C2=O)C1=O` [Ardisiaquinone A, reference compound] was tested, and the “Activity against MoT” value [1] was “Inactive”.

`CC1(C)S[C@@H]2[C@H](NC(=O)Cc3ccccc3)C(=O)N2[C@H]1C(=O)O` [Penicillin G, reference compound] was tested, and the “Activity against MoT” value [1] was “Inactive”.

In the case of `CC(=O)c1c(O)cc(O)c(C(C)=O)c1O` [2,4-Diacetylphloroglucinol (DAPG), 2,4-Diacetylphloroglucinol, reference compound], the “Activity against MoT” value [1] is reported as “Inactive”.

With `C[C@@H]1CCC/C=C/C=C/[C@H](O)C[C@@H](O)C/C=C\C=C\[C@@H](O)C/C=C/C=C\C(=O)O1` [Macrolactin A, reference compound] the “Activity against MoT” value [1] was “Inactive”.

With `CCCCCCCC/C=C\CCCCCCCc1cc(O)c(C)c(O)c1` [2-Methyl-5-(8Z-heptadecenyl) resorcinol, reference compound] the “Activity against MoT” value [1] was “Inactive”.
